Data published in patent publication US20090118211A1, “Compositions and Methods for Enhancement of Sexual Function” (priority 2005, published 2009).
“And” between values parts separate entries of the source, which are not always exact repeats. Identical values can stand only once. Like-named read-outs stand apart in the source and are kept apart here.

What was measured:
erectile dysfunction [1] = details: oral administration of 50-100 mg; cited from earlier work
[2] = cited from earlier work; for maximum observed plasma concentration (Cmax): oral administration
premature ejaculation [3] = details: cited from earlier work
[4] = test system: SSRI-induced sexual dysfunction; details: in vivo; cited from earlier work
premature ejaculation [5] = test: Retrospective analysis of clomipramine with or without a commercial PDE5 inhibitor taken as needed: ejaculation time; details: rated after 8 weeks, one patient per row
erectile dysfunction [6] = test: Retrospective analysis of clomipramine with or without a commercial PDE5 inhibitor taken as needed: subjectively rated erection; details: after 8 weeks, one patient per row

CCCc1nn(C)c2c(=O)[nH]c(-c3cc(S(=O)(=O)N4CCN(C)CC4)ccc3OCC)nc12 [sildenafil]
subjects studied found to respond well (erectile dysfunction [1]): 82% | maximum observed plasma concentration (Cmax) ([2]; 50-100 mg): 18 ng/mL | effect alone for men with premature ejaculation (premature ejaculation [3]; PDE5 inhibitor alone): ineffective

CCCN(CCC)CCc1cccc2c1CC(=O)N2 [ropinrole]
effect on sexual dysfunction induced by citalopram, sertraline, paroxetine, fluoxetine and venlafaxine treatment [4]: effective

CN(C)CCCN1c2ccccc2CCc2ccc(Cl)cc21 [Clomipramine, clomipramine]
time of peak plasma levels after dosage ([2]; much individual variation): 2 to 6 h | time required to reach peak plasma concentration, longer than that required by tadalafil ([2]; relative to tadalafil): about 2 hours | time required to reach peak plasma concentration, longer than that required by either vardenafil or sildenafil ([2]; relative to vardenafil or sildenafil): 3 h | time to climax in premature ejaculators (premature ejaculation [3]; 50 mg): more than 8 minutes | latency to ejaculation (premature ejaculation [3]; 25 milligrams 12 to 24 hours before anticipated sexual activity, from about 1.5 to 2 minutes): about 8 minutes | effect alone in men with premature ejaculations who were also impotent (premature ejaculation [3]; clomipramine alone): ineffective | Ejaculation Time (minutes) after treatment (premature ejaculation [5]; Clomipramine 10 mg alone): 10 min | Ejaculation Time (minutes) after treatment (premature ejaculation [5]; Clomipramine 15 mg alone): 10 min and 4 min and 20 min | Ejaculation Time (minutes) after treatment (premature ejaculation [5]; Clomipramine 25 mg alone): 7 minutes (2×) and 20 minutes (2×) and 15 minutes | Ejaculation Time (minutes) after treatment (premature ejaculation [5]; Clomipramine 30 mg alone): 10 minutes (3×) and 15 minutes (2×) and 8 minutes and 4 minutes (2×) and 5 minutes and 20 minutes and 0.25 minutes and 3 minutes | Erection (% satisfaction) after (%) (erectile dysfunction [6]; Clomipramine 10 mg alone): 100% | Erection (% satisfaction) after (%) (erectile dysfunction [6]; Clomipramine 15 mg alone, NC denotes no complain): 100% | Erection (% satisfaction) after (%) (erectile dysfunction [6]; Clomipramine 25 mg alone, NC denotes no complain): 100%

CN1CC(=O)N2[C@H](c3ccc4c(c3)OCO4)c3[nH]c4ccccc4c3C[C@@H]2C1=O [tadalafil]
Systemic exposure (AUC) versus dose ([2]; doses from 2.5 mg to 20 mg): increases proportionately | increase in Cmax versus dose ([2]; doses from 2.5 mg to 20 mg): slightly less than proportional | degree of drug accumulation ([2]; once-daily 20 mg dosing): 1.6 fold | time to attain steady-state plasma concentrations ([2]; once-daily 20 mg dosing): ≤ 5 days | maximum observed plasma concentration (Cmax) ([2]; 20 mg): 378 ng/mL

CN[C@H]1CC[C@@H](c2ccc(Cl)c(Cl)c2)c2ccccc21 [Sertraline, sertraline]
effect as ejaculation delaying agent (premature ejaculation [3]; 4 hours before sex, primary premature ejaculation versus sildenafil-corrected erectile dysfunction): effective as ejaculation delaying agent only for patients having primary premature ejaculation

CCCc1nc(C)c2c(=O)[nH]c(-c3cc(S(=O)(=O)N4CCN(CC)CC4)ccc3OCC)nn12 [vardenafil]
AUC and Cmax versus dose ([2]; oral dosing, recommended dose range (5-20 mg)): increase in almost direct proportion to the dose
